The values that follow come from patent US20260152527A1, “NOVEL MELANOCORTIN ANALOGS” (priority 2022, published 2026).

Usually IC50 stands for the concentration at which inhibition is half-maximal. Usually EC50 stands for the concentration giving half of the maximal effect. As usually defined, the solubility is the concentration that dissolves in the medium under given conditions.

Data set [1] addresses T1, human recombinant MC1R (Homo sapiens, UniProt Q01726).
T1 construct: host or cells: CHO-K1
As to the kind of experiment: cyclic AMP (cAMP) functional assay, MC1R stable cell line (CHO-K1).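 For all read-outs here: cells with test compound for 60 min at room temperature in buffer containing IBMX, then cAMP quantified by Eu-cAMP tracer and ULight anti-cAMP detection.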 The following applies: for IC50: cAMP functional assay. The data set is classed as cell-based.
Description: The cyclic AMP (cAMP) functional assay was performed on a human recombinant MC1R stable cell line (CHO-K1, GenScript). The cells were cultured at 37° C. and 5% CO2 with culture medium (90% Ham's F-12K (Kaighn's)+10% FBS+400 μg/mL G418). […] Then, 100 nL of compounds were transferred to the assay plate by the Echo machine. Cells were washed with PBS and then detached by incubation with 0.05% (w/v) Trypsin EDTA at 37° C. for 2 to 5 mins. Cells were collected with stimulation buffer (1×HBSS with 5 mM HEPES+0.2 mM IBMX+0.1% BSA) and 10 ul of cells (the density of 2,500 cells/well) solution was transferred to assay plate, centrifuged at 600 rpm for 3 min and then incubated with compounds at room temperature for 60 min. After that, 5 μL 4×Eu-cAMP tracer solution and 5 μL 4×ULight™-anti-cAMP solution was added into the cells, centrifuged at 600 rpm for 3 min and incubated for 60 min. The cAMP signal was detected with Envision® Multimode Plate Reader (PerkinElmer).

Data set [2] deals with T2, human recombinant MC5R (Homo sapiens, UniProt P33032).
T2 construct: host or cells: CHO-K1/Ga15
T2 sequence (P33032 whole entry): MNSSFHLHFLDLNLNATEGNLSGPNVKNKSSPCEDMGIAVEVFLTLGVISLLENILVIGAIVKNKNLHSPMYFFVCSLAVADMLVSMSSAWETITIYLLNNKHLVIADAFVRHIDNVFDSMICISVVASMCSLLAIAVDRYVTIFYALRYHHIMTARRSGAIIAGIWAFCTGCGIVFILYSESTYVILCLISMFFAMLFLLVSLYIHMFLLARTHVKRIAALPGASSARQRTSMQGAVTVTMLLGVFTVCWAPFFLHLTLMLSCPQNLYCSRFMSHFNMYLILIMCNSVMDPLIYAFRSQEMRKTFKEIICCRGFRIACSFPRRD
As to the kind of experiment: Ca2+ signalling functional assay, MC5R stable cell line (CHO-K1/Ga15). The data set is classed as cell-based.

In data set [3] the target is T3, human recombinant MC4R (Homo sapiens, UniProt P32245).
T3 construct: host or cells: CHO-K1/Gα15
T3 sequence (P32245 whole entry): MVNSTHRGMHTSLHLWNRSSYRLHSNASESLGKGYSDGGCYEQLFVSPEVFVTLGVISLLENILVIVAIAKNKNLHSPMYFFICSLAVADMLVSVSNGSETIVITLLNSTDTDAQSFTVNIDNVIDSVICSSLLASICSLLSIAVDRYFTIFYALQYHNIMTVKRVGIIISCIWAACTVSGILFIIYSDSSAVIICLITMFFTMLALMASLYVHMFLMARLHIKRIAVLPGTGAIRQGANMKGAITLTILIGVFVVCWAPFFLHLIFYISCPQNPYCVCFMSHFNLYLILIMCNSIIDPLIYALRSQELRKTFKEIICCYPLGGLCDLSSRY
Description: Ca2+ signalling functional assay, MC4R stable cell line (CHO-K1/Gα15). The data set is classed as cell-based. The following applies: for IC50: calcium flux functional assay.

The target in data set [4] is T4, human recombinant MC3R (Homo sapiens, UniProt P41968).
T4 construct: host or cells: CHO-K1/Gα15
T4 sequence (P41968 whole entry): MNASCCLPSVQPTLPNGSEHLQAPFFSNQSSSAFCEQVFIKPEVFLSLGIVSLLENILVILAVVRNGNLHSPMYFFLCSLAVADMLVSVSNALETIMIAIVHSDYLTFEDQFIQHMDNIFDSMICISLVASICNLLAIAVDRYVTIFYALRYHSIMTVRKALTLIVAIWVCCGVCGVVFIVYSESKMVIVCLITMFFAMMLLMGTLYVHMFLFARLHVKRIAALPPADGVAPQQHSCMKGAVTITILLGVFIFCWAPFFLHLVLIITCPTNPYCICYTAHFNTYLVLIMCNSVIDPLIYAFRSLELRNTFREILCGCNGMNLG
Description: Ca2+ signalling functional assay, MC3R stable cell line (CHO-K1/Gα15). The data set is classed as cell-based. The note with it: calcium flux functional assay. For orientation: Calcium flux is commonly read through the fluorescence of an indicator in the cells.
Description: The Ca^2+ signalling functional assay was performed on a human recombinant MC3R stable cell line (CHO-K1/Gα15, GenScript). The cells were cultured at 37° C. and 5% CO2 with culture medium (90% Ham's F-12K (Kaighn's)+10% FBS+200 μg/mL Zeocin+100 μg/mL Hygromycin B). Cells were washed with PBS and then detached by incubation with 0.05% (w/v) Trypsin EDTA at 37° C. for 2-5 mins. Detached cells were suspended in Ham's F-12K (Kaighn's) (containing 10% FBS) and a 50 μL cell suspension was seeded into each well of a 384-well assay plate at a density of 10,000 cells/well. Cells were allowed to settle overnight at 37° C., 5% CO2. […] The compounds and reference compound ACTH were diluted in 4 folds starting from 50 uM. Then, 500 nL of compounds were transferred to the compound plate by the Echo machine. 30 uL assay buffer was added into the compounds plate and then shaken for 20-40 minutes. The plates were then placed on the FLIPR Tetra High-Throughput Cellular Screening System (FLIPR®, Molecular Devices) and 15 μL of the compound was added to each well, then calcium flux signal was measured.

Data set [5] can be described thus: Thermodynamic solubility study in water. The data set is classed as physicochemical. As for the experimental part:
The study was conducted in water. Water was added into compound powder to make a 10 mg/mL solution. Sample tubes were shaken at the vibrator for 1 hour (1000 rpm) and then equilibrated overnight at room temperature. Samples were centrifuged at 12000 rpm for 10 min to precipitate undissolved particles. Supernatants were transferred from tubes to a new plate. An aliquot of the supernatant after centrifugation was taken from each well, then analyzed by LC-MS/MS. The concentration of the supernatants was quantified by a standard curve.

For data set [6] the following is noted: rabbit.
Description: To evaluate the effects of the peptide formulations following topical administration and subconjunctival injection a study in rabbits was undertaken. Animals were acclimated to the study and, upon completion of the acclimation period, each animal was physically examined for determination of suitability for study participation. Animals determined to be in good health were randomized into study groups to achieve averaged mean body weight in each group. (N=24; 3 animals per study group) Animals will be uniquely identified by corresponding cage card number and ear tag.
For topical ocular dosing the designated peptide formulations (35 L) were administered to the eye of each animal using a calibrated pipette. With the animal manually restrained, the upper eyelid of the eye was gently elevated to expose the cornea. Treatment was then be applied to the cornea without contacting the eye with the pipette tip. One topical drop was applied per eye for four days. Tissue collection (aqueous humor) occurred 30 minutes after last dose.
A veterinary ophthalmologist performed complete ocular examinations using a slit lamp biomicroscope and indirect ophthalmoscope to evaluate ocular surface morphology and anterior and posterior segment inflammation on all animals prior to injection to serve as a baseline for enrollment into the study as well as on specific study days. Animals were not tranquilized for the examinations.
At least 1.0 mL of whole blood was drawn from the marginal ear vein or cardiac puncture (terminal bleed only) into K2EDTA tubes for plasma collection. After collection, the tubes were gently mixed by inverting the tubes 5-8 times. Blood samples were stored on wet ice prior to plasma processing. The samples were centrifuged at 4° C. for 10 minutes at 2000 g in a swinging bucket refrigerated centrifuge. Within 20 minutes of the blood collection time, the clear plasma was transferred to prelabelled polypropylene tubes, snap frozen, and stored frozen at approximately −80° C.
Following euthanasia, eyes were enucleated and marked at the 12:00 position. Aqueous humor was removed via a 27 or 30 gauge syringe following a 10-15 second rinse with PBS and blot with Kimwipe, and snap frozen by immersing in liquid nitrogen. The whole globe was then snap frozen in liquid nitrogen and stored at −80° C. to be held for potential dissection. All samples were placed into individual vials and weighed. The plasma and aqueous humor were collected.
The peptides were evaluated for their ocular tolerability and pharmacokinetics following repeated (QID×4 days) topical instillation or a single subconjunctival injection in rabbits. The study examined penetration into the anterior chamber and concentrations in the plasma by measuring at a single time point.

Each structure is given as a SMILES string. ≈ marks a conversion by molar mass, not a printed value. Like-named read-outs stand apart in the source and are kept apart here. Positions of bridges follow the written chain, without caps; N, C: chain ends. Non-standard residues stand in square brackets, D forms with d. Residues, ends and D or L forms follow the SMILES beside them. Triazole bridges read from a SMILES are 1,4-linked. *: point of attachment. Benzoyl(3,5-(OH)2) = O=C(c1cc(O)cc(O)c1)*; Lys(N3) = [N-]=[N+]=NCCCC[C@H](N)C(=O)O; NMeH = CN[C@@H](Cc1c[nH]cn1)C(=O)O; NMeR = CN[C@@H](CCCNC(=N)N)C(=O)O; dNMeF = CN[C@H](Cc1ccccc1)C(=O)O; Nle = CCCC[C@H](N)C(=O)O; Pra = C#CC[C@H](N)C(=O)O Where only a bound is given, the exact number is not on record here.

T1 sequence (Q01726 whole entry): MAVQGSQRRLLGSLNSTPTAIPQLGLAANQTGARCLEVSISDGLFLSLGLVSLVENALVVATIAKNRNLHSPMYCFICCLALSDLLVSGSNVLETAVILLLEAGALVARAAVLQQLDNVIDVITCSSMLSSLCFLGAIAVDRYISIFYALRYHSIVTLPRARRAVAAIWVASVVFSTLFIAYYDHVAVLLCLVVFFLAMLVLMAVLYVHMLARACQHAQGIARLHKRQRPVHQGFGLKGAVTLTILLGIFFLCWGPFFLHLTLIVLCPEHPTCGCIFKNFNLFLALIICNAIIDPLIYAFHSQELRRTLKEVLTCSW

As for `CCCC[C@H](NC(C)=O)C(=O)N[C@H]1CCCCn2cc(nn2)C[C@@H](C(N)=O)NC(=O)[C@H](Cc2c[nH]c3ccccc23)NC(=O)[C@H](CCCNC(=N)N)N(C)C(=O)[C@@H](Cc2ccccc2)NC(=O)[C@H](Cc2c[nH]cn2)N(C)C1=O` [KR-052, Ac-Nle-[Lys(N3)-NMeHis-DPhe-NMeArg-Trp-Pra]-NH2] (Ac-[Nle][Lys(N3)][NMeH][dF][NMeR]W[Pra]-NH2; triazole 2-7), the IC50 in data set [1] was 2.68 nM; in data set [2] (calcium flux functional assay), 195 nM; in data set [3] it was 122 nM; in data set [4], over 50000 nM.

In the case of `CCCC[C@H](NC(C)=O)C(=O)N[C@H]1CCCCn2cc(nn2)C[C@@H](C(N)=O)NC(=O)[C@H](Cc2c[nH]c3ccccc23)NC(=O)[C@H](CCCNC(=N)N)NC(=O)[C@@H](Cc2ccccc2)NC(=O)[C@H](Cc2cnc[nH]2)NC1=O` [KR-009, Ac-Nle-[Lys(N3)-His-DPhe-Arg-Trp-Pra]-NH2] (Ac-[Nle][Lys(N3)]H[dF]RW[Pra]-NH2; triazole 2-7), the results for the EC50 in data set [2] and in data set [3] were 140 nM and 45.7 nM, respectively. Also, in data set [2] (calcium flux functional assay), the IC50 worked out at 140 nM. This compound also registered a solubility in data set [5] of over 5000 µg/mL. In data set [6], the “Topical Ocular Permeability (nM ± SEM)” value is reported as 1.43 ± 1.01 nM.

Take `N=C(N)NCCC[C@@H]1NC(=O)[C@H](Cc2ccccc2)NC(=O)[C@H](Cc2c[nH]cn2)NC(=O)[C@H](CCC(=O)O)NC(=O)CSC[C@@H](C(N)=O)NC(=O)[C@H](Cc2c[nH]c3ccccc23)NC1=O` [KR-011, Cyclo(-Ac-Glu-His-Phe-Arg-Trp-Cys)-NH2] ({CH2CO}-EHFRWC-NH2; thioether N-6 (inferred)): in data set [2] (calcium flux functional assay), the “MC5R IC50” value is “Not fit”. For the same compound, the IC50 in data set [4] is over 50000 nM.

In the case of `CSCC[C@H](NC(=O)[C@H](CO)NC(=O)[C@H](Cc1ccc(O)cc1)NC(=O)[C@H](CO)NC(C)=O)C(=O)N[C@@H](CCC(=O)O)C(=O)N[C@@H](Cc1c[nH]cn1)C(=O)N(C)[C@@H](Cc1ccccc1)C(=O)N[C@@H](CCCNC(=N)N)C(=O)N[C@@H](Cc1c[nH]c2ccccc12)C(=O)NCC(=O)N[C@@H](CCCCN)C(=O)N1CCC[C@H]1C(=O)N[C@H](C(N)=O)C(C)C` [KR-022, Ac-Ser-Tyr-Ser-Met-Glu-His-(NMe-Phe)-Arg-Trp-Gly-Lys-Pro-Val-NH2], the IC50 was over 200 nM in data set [1] and over 50000 nM in data set [4].

Regarding `CCCC[C@H](NC(C)=O)C(=O)N1CCC(=O)NCCN(CC(=O)N[C@@H](Cc2c[nH]c3ccccc23)C(N)=O)C(=O)[C@H](CCCNC(=N)N)NC(=O)[C@@H](Cc2ccccc2)NC(=O)[C@H](Cc2c[nH]cn2)NC(=O)C1` [KR-029, Ac-Nle-cyc(NGlu-His-DPhe-Arg-NDab)-Trp-NH2], the IC50 is over 50 nM in data set [1], over 10000 nM in data set [2] (calcium flux functional assay), over 1000 nM in data set [3] and over 50000 nM in data set [4].

`CCCC[C@H](NC(C)=O)C(=O)N[C@H]1CCCCn2cc(nn2)C[C@@H](C(N)=O)NC(=O)[C@H](Cc2c[nH]c3ccccc23)NC(=O)[C@H](CCCNC(=N)N)NC(=O)[C@@H](Cc2ccccc2)N(C)C(=O)[C@H](Cc2c[nH]cn2)NC1=O` [KR-044, Ac-Nle-[Lys(N3)-His-(NMe-Dphe)-Arg-Trp-Pra]-NH2] (Ac-[Nle][Lys(N3)]H[dNMeF]RW[Pra]-NH2; triazole 2-7): the IC50 in data set [1] was over 50 nM; in data set [4] it was over 50000 nM.

Regarding `CCCC[C@H](NC(C)=O)C(=O)N[C@H]1CCCCn2cc(nn2)C[C@@H](C(N)=O)NC(=O)[C@H](Cc2c[nH]c3ccccc23)NC(=O)[C@H](CCCNC(=N)N)N(C)C(=O)[C@@H](Cc2ccccc2)NC(=O)[C@H](Cc2c[nH]cn2)NC1=O` [KR-045, Ac-Nle-[Lys(N3)-His-DPhe-NMeArg-Trp-Pra]-NH2] (Ac-[Nle][Lys(N3)]H[dF][NMeR]W[Pra]-NH2; triazole 2-7), in data set [4], the IC50 was over 50000 nM.

With `CSCC[C@H](NC(=O)[C@H](CO)NC(=O)[C@H](Cc1ccc(O)cc1)NC(=O)[C@H](CO)NC(C)=O)C(=O)N[C@@H](CCC(=O)O)C(=O)N[C@@H](Cc1c[nH]cn1)C(=O)N(C)[C@H](Cc1ccccc1)C(=O)N[C@@H](CCCNC(=N)N)C(=O)N[C@@H](Cc1c[nH]c2ccccc12)C(=O)NCC(=O)N[C@@H](CCCCN)C(=O)N1CCC[C@H]1C(=O)N[C@H](C(N)=O)C(C)C` [KR-025, Ac-Ser-Tyr-Ser-Met-Glu-His-(D-NMePhe)-Arg-Trp-Gly-Lys-Pro-Val-NH2], in data set [4], the IC50 was over 50000 nM.

Turning to `CCCC[C@H](NC(C)=O)C(=O)N[C@H]1CCCCn2cc(nn2)C[C@@H](C(=O)N[C@@H](CCCCN)C(N)=O)NC(=O)[C@H](Cc2c[nH]c3ccccc23)NC(=O)[C@H](CCCNC(=N)N)NC(=O)[C@@H](Cc2ccc(OC)cc2)NC(=O)[C@H](Cc2c[nH]cn2)NC1=O` [KR-058, Ac-Nle-[Lys(N3)-His-DTyr(Me)-Arg-Trp-Pra]-Lys-NH2] (Ac-[Nle][Lys(N3)]H[dY](Me)RW[Pra]K-NH2; triazole 2-7), the IC50 in data set [1] was 2.68 nM; in data set [2] (calcium flux functional assay), 195 nM; in data set [3], 122 nM; in data set [4], over 50000 nM.

For `CCCC[C@H](NC(=O)c1cc(O)cc(O)c1)C(=O)N[C@H]1CCCCn2cc(nn2)C[C@@H](C(N)=O)NC(=O)[C@H](Cc2c[nH]c3ccccc23)NC(=O)[C@H](CCCNC(=N)N)NC(=O)[C@@H](Cc2ccccc2)NC(=O)[C@H](Cc2c[nH]cn2)NC1=O` [KR-073, HyBA-Nle-[Lys(N3)-His-DPhe-Arg-Trp-Pra]-NH2] ({Benzoyl(3,5-(OH)2)}-[Nle][Lys(N3)]H[dF]RW[Pra]-NH2; triazole 2-7), the EC50 in data set [1] worked out at 0.0041 nM; in data set [2], 134 nM; in data set [3], 13.9 nM. Besides, the figures for the IC50 in data set [1] and in data set [2] (calcium flux functional assay) were 0.0041 nM and 134 nM, respectively. For the same compound, in data set [5] (Table 8, read-out: Solubility), the solubility was 7690 µg/mL (≈ 6.73 mM). Further, the “Topical Ocular Permeability (nM ± SEM)” value in data set [6] was 12.3 ± 3.8 nM.
